Test results reported in ChEMBL document CHEMBL3885861, “Open TG-GATES”.

Organism: Rattus norvegicus
Experiment: Open TG-GATES - Regimen: Daily Repeat
Assay type: toxicity, organism-based, Sprague-Dawley
Parameters: regimen Daily Repeat, gender Male, age 6 weeks
Conditions: in vivo, iv, route intravenous injection; for APTT / Bas / Eos / Fbg / Hb / Ht / Lym / MCH / MCHC / MCV / Mono / Neu / PT / Plat / RBC / Ret / WBC: tissue Blood; for KIDNEY_L / KIDNEY_R / KIDNEY_TOTAL: tissue Kidney; for LIVER: tissue Liver; for A/G / ALP / ALT / AST / BUN / CRE / Ca / Cl / DBIL / GLC / IP / K / LDH / Na / PL / RALB / TBIL / TC / TG / TP / gamma-GTP: tissue Plasma
[1] = 6 mg/kg, 72 h, dose level Middle, time 3 day
[2] = 6 mg/kg, […], dose level Middle, time 7 day
[3] = 6 mg/kg, […], dose level Middle, time 14 day
[4] = 6 mg/kg, […], dose level Middle, time 28 day
[5] = 20 mg/kg, 72 h, dose level High, time 3 day
[6] = 20 mg/kg, […], dose level High, time 7 day
[7] = 20 mg/kg, […], dose level High, time 14 day
[8] = 20 mg/kg, […], dose level High, time 28 day

## NCCBr [BROMOETHANAMINE]
[1]
  TERMINAL_BW: 227.7 g
  APTT: 22.4 s
  Bas: 0%
  Eos: 1%
  Fbg: 318.4 mg/dL
  Hb: 13.8 g/dL
  Ht: 40%
  Lym: 83.6%
  MCH: 21.2 pg
  MCHC: 34.4%
  MCV: 61.7 fL
  Mono: 2%
  Neu: 12.2%
  PT: 16.2 s
  Plat: 121.7 x10_4/uL
  RBC: 648 x10_4/ul
  Ret: 4.6%
  WBC: 75.6 x10_2/uL
  KIDNEY_L: 1 g
  KIDNEY_R: 1 g
  KIDNEY_TOTAL: 2 g
  LIVER: 10.9 g
  A/G: 1.3
  ALP: 1767.4 IU/L
  ALT: 39.6 IU/L
  AST: 69 IU/L
  BUN: 15.6 mg/dL
  CRE: 0.2 mg/dL
  Ca: 10.9 mg/dL
  Cl: 106.6 meq/L
  DBIL: 0 mg/dL
  GLC: 169 mg/dL
  IP: 6.9 mg/dL
  K: 4.6 meq/L
  LDH: 209.6 IU/L
  Na: 142 meq/L
  PL: 138.8 mg/dL
  RALB: 3.1 g/dL
  TBIL: 0.006 mg/dL
  TC: 71 mg/dL
  TG: 113.8 mg/dL
  TP: 5.6 g/dL
  gamma-GTP: 1.4 IU/L
[2]
  TERMINAL_BW: 261 g
  APTT: 23.5 s
  Bas: 0%
  Eos: 1.4%
  Fbg: 282.6 mg/dL
  Hb: 13.9 g/dL
  Ht: 40.1%
  Lym: 83%
  MCH: 21.6 pg
  MCHC: 34.7%
  MCV: 62.2 fL
  Mono: 2.8%
  Neu: 11.8%
  PT: 15.8 s
  Plat: 123.4 x10_4/uL
  RBC: 645 x10_4/ul
  Ret: 3.9%
  WBC: 116 x10_2/uL
  KIDNEY_L: 1.1 g
  KIDNEY_R: 1.1 g
  KIDNEY_TOTAL: 2.1 g
  LIVER: 12.5 g
  A/G: 1.2
  ALP: 1617 IU/L
  ALT: 39.4 IU/L
  AST: 71.4 IU/L
  BUN: 17.6 mg/dL
  CRE: 0.2 mg/dL
  Ca: 10.8 mg/dL
  Cl: 107.4 meq/L
  DBIL: 0 mg/dL
  GLC: 182.2 mg/dL
  IP: 6.9 mg/dL
  K: 4.5 meq/L
  LDH: 204 IU/L
  Na: 141 meq/L
  PL: 140 mg/dL
  RALB: 3 g/dL
  TBIL: 0.002 mg/dL
  TC: 72.4 mg/dL
  TG: 119 mg/dL
  TP: 5.5 g/dL
  gamma-GTP: 1.2 IU/L
[3]
  TERMINAL_BW: 314.5 g
  APTT: 22.4 s
  Bas: 0%
  Eos: 1.2%
  Fbg: 327.4 mg/dL
  Hb: 13.8 g/dL
  Ht: 40.3%
  Lym: 85.2%
  MCH: 20.4 pg
  MCHC: 34.3%
  MCV: 59.5 fL
  Mono: 2%
  Neu: 10.6%
  PT: 15.5 s
  Plat: 132 x10_4/uL
  RBC: 676.6 x10_4/ul
  Ret: 3.8%
  WBC: 119.2 x10_2/uL
  KIDNEY_L: 1.3 g
  KIDNEY_R: 1.2 g
  KIDNEY_TOTAL: 2.5 g
  LIVER: 14.7 g
  A/G: 1.1
  ALP: 1499 IU/L
  ALT: 41 IU/L
  AST: 69 IU/L
  BUN: 18.2 mg/dL
  CRE: 0.2 mg/dL
  Ca: 10.8 mg/dL
  Cl: 107 meq/L
  DBIL: 0 mg/dL
  GLC: 170.2 mg/dL
  IP: 7.1 mg/dL
  K: 4.4 meq/L
  LDH: 142.6 IU/L
  Na: 143.2 meq/L
  PL: 145.8 mg/dL
  RALB: 3 g/dL
  TBIL: 0.004 mg/dL
  TC: 77.6 mg/dL
  TG: 98.2 mg/dL
  TP: 5.8 g/dL
  gamma-GTP: 2.8 IU/L
[4]
  TERMINAL_BW: 361.2 g
  APTT: 26 s
  Bas: 0%
  Eos: 1.4%
  Fbg: 312.2 mg/dL
  Hb: 15.8 g/dL
  Ht: 42.9%
  Lym: 84.2%
  MCH: 20.4 pg
  MCHC: 36.9%
  MCV: 55.4 fL
  Mono: 1.4%
  Neu: 12.2%
  PT: 16.4 s
  Plat: 110.1 x10_4/uL
  RBC: 775.2 x10_4/ul
  Ret: 2.2%
  WBC: 90.4 x10_2/uL
  KIDNEY_L: 1.3 g
  KIDNEY_R: 1.4 g
  KIDNEY_TOTAL: 2.7 g
  LIVER: 15.7 g
  A/G: 1.1
  ALP: 1273.6 IU/L
  ALT: 32.8 IU/L
  AST: 55 IU/L
  BUN: 18.2 mg/dL
  CRE: 0.2 mg/dL
  Ca: 10.5 mg/dL
  Cl: 106.4 meq/L
  DBIL: 0 mg/dL
  GLC: 185.8 mg/dL
  IP: 6.5 mg/dL
  K: 4.1 meq/L
  LDH: 118 IU/L
  Na: 145 meq/L
  PL: 131.8 mg/dL
  RALB: 3.2 g/dL
  TBIL: 0.004 mg/dL
  TC: 65.2 mg/dL
  TG: 112.2 mg/dL
  TP: 6.2 g/dL
  gamma-GTP: 2.6 IU/L
[5]
  TERMINAL_BW: 210.6 g
  APTT: 22.4 s
  Bas: 0%
  Eos: 1%
  Fbg: 351 mg/dL
  Hb: 13.7 g/dL
  Ht: 39.6%
  Lym: 83.4%
  MCH: 21.2 pg
  MCHC: 34.5%
  MCV: 61.3 fL
  Mono: 3%
  Neu: 11%
  PT: 16.3 s
  Plat: 130.9 x10_4/uL
  RBC: 646.2 x10_4/ul
  Ret: 2.4%
  WBC: 69.9 x10_2/uL
  KIDNEY_L: 1 g
  KIDNEY_R: 1 g
  KIDNEY_TOTAL: 2 g
  LIVER: 9.3 g
  A/G: 1.2
  ALP: 1285.8 IU/L
  ALT: 37 IU/L
  AST: 63.2 IU/L
  BUN: 16 mg/dL
  CRE: 0.2 mg/dL
  Ca: 10.6 mg/dL
  Cl: 109.2 meq/L
  DBIL: 0.004 mg/dL
  GLC: 160 mg/dL
  IP: 5.8 mg/dL
  K: 4.5 meq/L
  LDH: 206.4 IU/L
  Na: 141.6 meq/L
  PL: 140 mg/dL
  RALB: 3 g/dL
  TBIL: 0.014 mg/dL
  TC: 77.8 mg/dL
  TG: 53.4 mg/dL
  TP: 5.6 g/dL
  gamma-GTP: 1.4 IU/L
[6]
  TERMINAL_BW: 227.1 g
  APTT: 23 s
  Bas: 0%
  Eos: 0.8%
  Fbg: 332.6 mg/dL
  Hb: 14.1 g/dL
  Ht: 40.5%
  Lym: 86.8%
  MCH: 20.9 pg
  MCHC: 34.8%
  MCV: 59.9 fL
  Mono: 2.4%
  Neu: 8.6%
  PT: 15.9 s
  Plat: 140.5 x10_4/uL
  RBC: 676 x10_4/ul
  Ret: 1.6%
  WBC: 87 x10_2/uL
  KIDNEY_L: 1.1 g
  KIDNEY_R: 1.1 g
  KIDNEY_TOTAL: 2.2 g
  LIVER: 11.1 g
  A/G: 1.1
  ALP: 1454.4 IU/L
  ALT: 31.6 IU/L
  AST: 53.4 IU/L
  BUN: 15.6 mg/dL
  CRE: 0.2 mg/dL
  Ca: 10.7 mg/dL
  Cl: 109 meq/L
  DBIL: 0 mg/dL
  GLC: 174.2 mg/dL
  IP: 7 mg/dL
  K: 4.3 meq/L
  LDH: 176.6 IU/L
  Na: 141.2 meq/L
  PL: 147.4 mg/dL
  RALB: 3 g/dL
  TBIL: 0.006 mg/dL
  TC: 75.2 mg/dL
  TG: 98.6 mg/dL
  TP: 5.7 g/dL
  gamma-GTP: 1.6 IU/L
[7]
  TERMINAL_BW: 262.8 g
  APTT: 24.6 s
  Bas: 0%
  Eos: 0.2%
  Fbg: 332.6 mg/dL
  Hb: 14.1 g/dL
  Ht: 40.7%
  Lym: 87.4%
  MCH: 20.1 pg
  MCHC: 34.6%
  MCV: 58.1 fL
  Mono: 2%
  Neu: 9.2%
  PT: 15.6 s
  Plat: 134.2 x10_4/uL
  RBC: 700.8 x10_4/ul
  Ret: 2.7%
  WBC: 76.8 x10_2/uL
  KIDNEY_L: 1.2 g
  KIDNEY_R: 1.2 g
  KIDNEY_TOTAL: 2.4 g
  LIVER: 13.6 g
  A/G: 1.1
  ALP: 1344.2 IU/L
  ALT: 34.2 IU/L
  AST: 49.4 IU/L
  BUN: 19.2 mg/dL
  CRE: 0.1 mg/dL
  Ca: 10.8 mg/dL
  Cl: 110.2 meq/L
  DBIL: 0 mg/dL
  GLC: 170.4 mg/dL
  IP: 6.8 mg/dL
  K: 4.3 meq/L
  LDH: 135.6 IU/L
  Na: 144.4 meq/L
  PL: 143 mg/dL
  RALB: 3.1 g/dL
  TBIL: 0.012 mg/dL
  TC: 69.2 mg/dL
  TG: 93.6 mg/dL
  TP: 6 g/dL
  gamma-GTP: 2.6 IU/L
[8]
  TERMINAL_BW: 323 g
  APTT: 25.9 s
  Bas: 0%
  Eos: 1.4%
  Fbg: 333.4 mg/dL
  Hb: 14.8 g/dL
  Ht: 40.7%
  Lym: 79%
  MCH: 19.9 pg
  MCHC: 36.3%
  MCV: 54.8 fL
  Mono: 3%
  Neu: 15.6%
  PT: 16.1 s
  Plat: 120.7 x10_4/uL
  RBC: 744 x10_4/ul
  Ret: 3.3%
  WBC: 65.8 x10_2/uL
  KIDNEY_L: 1.4 g
  KIDNEY_R: 1.4 g
  KIDNEY_TOTAL: 2.8 g
  LIVER: 18.5 g
  A/G: 1
  ALP: 1076.6 IU/L
  ALT: 39 IU/L
  AST: 43 IU/L
  BUN: 20.2 mg/dL
  CRE: 0.1 mg/dL
  Ca: 10.7 mg/dL
  Cl: 106.2 meq/L
  DBIL: 0 mg/dL
  GLC: 178 mg/dL
  IP: 7 mg/dL
  K: 4.2 meq/L
  LDH: 118 IU/L
  Na: 144.2 meq/L
  PL: 170 mg/dL
  RALB: 3.4 g/dL
  TBIL: 0.042 mg/dL
  TC: 77.6 mg/dL
  TG: 143.6 mg/dL
  TP: 6.6 g/dL
  gamma-GTP: 4 IU/L
